From US10988445B2 (AstraZeneca AB, priority 2015, dated 2021)

System: human TH17 cells
Test: Inhibition of IL-17 release from human TH17 cells
Type: cell-based
Settings: Homo sapiens, 96 h, isolated human TH17 cells, 4 days culture, IL-17A by HTRF; read-out: pIC50 IL-17 release (converted)
Method in brief: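 TH17 cells (CD4+CXCR3-CCR6+) enriched from healthy-donor PBMC isolated from heparinized whole blood. Supernatants collected on day 4; IL-17A quantified by HTRF.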

## COC(=O)N1Cc2cc(S(=O)(=O)C3CC3)ccc2C1C(=O)Nc1ccc(C(O)(C(F)(F)F)C(F)(F)F)cc1 (stereo not drawn) [Example 602, Methyl 5-(cyclopropylsulfonyl)-1-{[4-(1,1,1,3,3,3-hexafluoro-2-hydroxypropan-2-yl)phenyl]carbamoyl}-1,3-dihydro-2H-isoindole-2-carboxylate]
  IC50: 25.1 nM

## CC(=O)N1Cc2cc(S(=O)(=O)CC3(O)CC3)ccc2C1C(=O)Nc1ccc(C(O)(C(F)(F)F)C(F)(F)F)cc1 (stereo not drawn) [Example 1101, 2-Acetyl-N-[4-(1,1,1,3,3,3-hexafluoro-2-hydroxypropan-2-yl)phenyl]-5-{[(1-hydroxycyclopropyl)methyl]sulfonyl}-2,3-dihydro-1H-isoindole-1-carboxamide]
  IC50: 63.1 nM

## CC(CO)C(=O)N1Cc2cc(S(C)(=O)=O)ccc2C1C(=O)Nc1ccc(C(O)(C(F)(F)F)C(F)(F)F)cc1 (stereo not drawn) [Example 425, N-[4-(1,1,1,3,3,3-Hexafluoro-2-hydroxypropan-2-yl)phenyl]-2-(3-hydroxy-2-methylpropanoyl)-5-(methylsulfonyl)-2,3-dihydro-1H-isoindole-1-carboxamide]
  IC50: 79.4 nM

## CCC(OC)C(=O)N1Cc2cc(S(C)(=O)=O)ccc2C1C(=O)Nc1ccc(C(O)(C(F)(F)F)C(F)(F)F)cc1 (stereo not drawn) [Example 447, N-[4-(1,1,1,3,3,3-Hexafluoro-2-hydroxypropan-2-yl)phenyl]-2-(2-methoxybutanoyl)-5-(methylsulfonyl)-2,3-dihydro-1H-isoindole-1-carboxamide]
  IC50: 50.1 nM

## O=C(Nc1ccc(C(O)(C(F)(F)F)C(F)(F)F)cc1)C1c2ccc(S(=O)(=O)CC3CC3)cc2CN1C(=O)CC1(O)CC1 (stereo not drawn) [Example 206, 5-[(Cyclopropylmethyl)sulfonyl]-N-[4-(1,1,1,3,3,3-hexafluoro-2-hydroxypropan-2-yl)phenyl]-2-[(1-hydroxycyclopropyl)acetyl]-2,3-dihydro-1H-isoindole-1-carboxamide]
  IC50: 39.8 nM

## CCS(=O)(=O)c1ccc2c(c1)CN(C(=O)CC1(N(C)C)CC1)C2C(=O)Nc1ccc(C(O)(C(F)(F)F)C(F)(F)F)cc1 (stereo not drawn) [Example 115, 2-{[1-(Dimethylamino)cyclopropyl]acetyl}-5-(ethylsulfonyl)-N-[4-(1,1,1,3,3,3-hexafluoro-2-hydroxypropan-2-yl)phenyl]-2,3-dihydro-1H-isoindole-1-carboxamide]
  IC50: 63.1 nM

## CS(=O)(=O)c1ccc2c(c1)CN(C(=O)C1(F)CC1)C2C(=O)Nc1ccc(C(O)(C(F)(F)F)C(F)(F)F)cc1 (stereo not drawn) [Example 446, 2-[(1-Fluorocyclopropyl)carbonyl]-N-[4-(1,1,1,3,3,3-hexafluoro-2-hydroxypropan-2-yl)phenyl]-5-(methylsulfonyl)-2,3-dihydro-1H-isoindole-1-carboxamide]
  IC50: 31.6 nM

## COC1(C(=O)N2Cc3cc(S(C)(=O)=O)ccc3C2C(=O)Nc2ccc(C(O)(C(F)(F)F)C(F)(F)F)cc2F)CC1 (stereo not drawn) [Example 441, N-[2-Fluoro-4-(1,1,1,3,3,3-hexafluoro-2-hydroxypropan-2-yl)phenyl]-2-[(1-methoxycyclopropyl)carbonyl]-5-(methylsulfonyl)-2,3-dihydro-1H-isoindole-1-carboxamide]
  IC50: 25.1 nM

## COC(=O)N1Cc2cc(S(=O)(=O)CC3(C#N)CC3)ccc2C1C(=O)Nc1ccc(C(O)(C(F)(F)F)C(F)(F)F)cc1 (stereo not drawn) [Example 902, Methyl 5-{[(1-cyanocyclopropyl)methyl]sulfonyl}-1-{[4-(1,1,1,3,3,3-hexafluoro-2-hydroxypropan-2-yl)phenyl]carbamoyl}-1,3-dihydro-2H-isoindole-2-carboxylate]
  IC50: 50.1 nM
